{
  "source": "patent US5217960A",
  "about": "“Erythromycin derivatives” (priority 1991, dated 1993)",
  "type_in_all_cases": "cell-based",
  "key": {"[1]": {"system": "STAPHYLOCOCCUS AUREUS NCTC 10649", "assay": "In vitro antibacterial activity, agar dilution MIC", "conditions": "NCTC10649, 24 h"}, "[2]": {"system": "KLEBSIELLA PNEUMONIAE ATCC 8045", "assay": "In vitro antibacterial activity, agar dilution MIC", "conditions": "ATCC8045, 24 h"}, "STAPHYLOCOCCUS AUREUS 45": {"system": "STAPHYLOCOCCUS AUREUS 45", "assay": "In vitro antibacterial activity, agar dilution MIC", "conditions": "24 h"}, "[3]": {"system": "PSEUDOMONAS AERUGINOSA BMH10", "assay": "In vitro antibacterial activity, agar dilution MIC", "conditions": "24 h"}, "[4]": {"system": "PSEUDOMONAS AERUGINOSA K799/WT", "assay": "In vitro antibacterial activity, agar dilution MIC", "conditions": "P. aeruginosa K799/WT, BHI agar, 35-37° C., 20 to 24 hours"}, "ESCHERICHIA COLI H560": {"system": "ESCHERICHIA COLI H560", "assay": "In vitro antibacterial activity, agar dilution MIC", "conditions": "24 h"}, "[5]": {"system": "ENTEROBACTER AEROGENES ATCC 13048", "assay": "In vitro antibacterial activity, agar dilution MIC", "conditions": "Klebsiella aerogenes, ATCC13048; E. aerogenes ATCC 13048; BHI agar, 35-37° C., 20 to 24 hours; read-out: MIC"}, "M[…] ATCC 4698": {"system": "M[…] ATCC 4698", "assay": "In vitro antibacterial activity, agar dilution MIC", "conditions": "Micrococcus luteus, ATCC4698, 24 h", "procedure": "(§1) Representative compounds of the present invention were assayed in vitro for antibacterial activity as follows: Twelve petri dishes containing successive aqueous dilutions of the test compound mixed with 10 ml of sterilized Brain Heart Infusion (BHI) agar (Difco 0418-01-5) were prepared. Each plate was inoculated with 1:100 (or 1:10 for slow-growing strains, such as Micrococcus and Streptococcus) dilutions of up to 32 different microorganisms, using a Steers replicator block. The inoculated plates were incubated at 35°-37° C. for 20 to 24 hours. In addition, a control plate, using BHI agar containing no test compound, was prepared and incubated at the beginning and end of each test.\n(§2) An additional plate containing a compound having known susceptibility patterns for the organisms being tested and belonging to the same antibiotic class as the test compound was also prepared and incubated as a further control, as well as to provide test-to-test comparability. Erythromycin A was used for this purpose.\n(§3) After incubation, each disk was read. The minimum inhibitory concentration (MIC) was defined as the lowest concentration of drug yielding no growth, a slight haze, or sparsely isolated colonies on the inoculum spot as compared to the growth control. The results of this assay, shown below in Tables 1 and 2, support the conclusion that the compounds of the invention are effective antibacterial agents."}, "[6]": {"system": "PSEUDOMONAS AERUGINOSA K799/61", "assay": "In vitro antibacterial activity, agar dilution MIC", "conditions": "P. aeruginosa K799/61, BHI agar, 35-37° C., 20 to 24 hours, read-out: MIC", "procedure": "as §1, §2, §3"}, "EN[…] ATCC 8043": {"system": "EN[…] ATCC 8043", "assay": "In vitro antibacterial activity, agar dilution MIC", "conditions": "Enterococcus faecium, ATCC8043, 24 h", "procedure": "as §1, §2, §3"}, "M[…] ATCC 9341": {"system": "M[…] ATCC 9341", "assay": "In vitro antibacterial activity, agar dilution MIC", "conditions": "Micrococcus luteus, ATCC9341, 24 h", "procedure": "as §1, §2, §3"}, "ESCHERICHIA COLI JUHL": {"system": "ESCHERICHIA COLI JUHL", "assay": "microbe, parasite or virus in culture", "conditions": "E. coli JUHL, BHI agar, 35-37° C., 20 to 24 hours, read-out: MIC"}, "[7]": {"system": "PROVIDENCIA STUARTII CMX 640", "assay": "microbe, parasite or virus in culture", "conditions": "P. stuartii CMX 640, BHI agar, 35-37° C., 20 to 24 hours"}, "[8]": {"system": "STAPHYLOCOCCUS AUREUS 1775", "assay": "In vitro antibacterial activity, agar dilution MIC", "conditions": "S. aureus 1775, BHI agar, 35-37° C., 20 to 24 hours, read-out: MIC"}, "ESCHERICHIA COLI KNK 437": {"system": "ESCHERICHIA COLI KNK 437", "assay": "microbe, parasite or virus in culture", "conditions": "E. coli KNK 437, BHI agar, 35-37° C., 20 to 24 hours"}, "[9]": {"system": "STAPHYLOCOCCUS EPIDERMIDIS 3519", "assay": "microbe, parasite or virus in culture", "conditions": "24 h"}, "[10]": {"system": "STAPHYLOCOCCUS AUREUS A5177", "assay": "In vitro antibacterial activity, agar dilution MIC", "conditions": "S. aureus A5177, BHI agar, 35-37° C., 20 to 24 hours, read-out: MIC"}, "STR[…] EES61": {"system": "STR[…] EES61", "assay": "In vitro antibacterial activity, agar dilution MIC", "conditions": "Streptococcus pyogenes, 24 h", "procedure": "as §1, §2\n(§4) After incubation, each disk was read. The minimum inhibitory concentration (MIC) was defined as the lowest concentration of drug yielding no growth, a slight haze, or sparsely isolated colonies on the inoculum spot as compared to the growth control."}, "STR[…] 508": {"system": "STR[…] 508", "assay": "In vitro antibacterial activity, agar dilution MIC", "conditions": "Streptococcus agalactiae, 24 h", "procedure": "as §1, §2, §4"}, "[11]": {"system": "PSEUDOMONAS AERUGINOSA A5007", "assay": "In vitro antibacterial activity, agar dilution MIC", "conditions": "P. aeruginosa A5007, BHI agar, 35-37° C., 20 to 24 hours"}, "[12]": {"system": "STAPHYLOCOCCUS AUREUS CMX 553", "assay": "In vitro antibacterial activity, agar dilution MIC", "conditions": "24 h"}, "ESCHERICHIA COLI DC-2": {"system": "ESCHERICHIA COLI DC-2", "assay": "In vitro antibacterial activity, agar dilution MIC", "conditions": "E. coli DC-2, BHI agar, 35-37° C., 20 to 24 hours, read-out: MIC"}, "[13]": {"system": "STAPHYLOCOCCUS AUREUS 642A", "assay": "In vitro antibacterial activity, agar dilution MIC", "conditions": "24 h"}, "ESCHERICHIA COLI SS": {"system": "ESCHERICHIA COLI SS", "assay": "In vitro antibacterial activity, agar dilution MIC", "conditions": "24 h"}, "[14]": {"system": "STREPTOCOCCUS PYOGENES 2548 INDUC", "assay": "In vitro antibacterial activity, agar dilution MIC", "conditions": "24 h"}, "[15]": {"system": "STREPTOCOCCUS BOVIS A5169", "assay": "In vitro antibacterial activity, agar dilution MIC", "conditions": "24 h"}, "PSEUDOMONAS CEPACIA 296I": {"system": "PSEUDOMONAS CEPACIA 296I", "assay": "In vitro antibacterial activity, agar dilution MIC", "conditions": "Burkholderia cepacia; P. cepacia 296I; BHI agar, 35-37° C., 20 to 24 hours; read-out: MIC"}, "[16]": {"system": "STREPTOCOCCUS PYOGENES 930 CONST", "assay": "In vitro antibacterial activity, agar dilution MIC", "conditions": "S. pyogenes 930 CONST, BHI agar, 35-37° C., 20 to 24 hours, read-out: MIC"}, "[17]": {"system": "STAPHYLOCOCCUS AUREUS ATCC 6538P", "assay": "In vitro antibacterial activity, agar dilution MIC", "conditions": "ATCC6538P, 24 h"}},
  "data": [
    {"smiles": "CC[C@H]1OC(=O)[C@H](C)[C@@H](O[C@H]2C[C@@](C)(OC)[C@@H](O)[C@H](C)O2)[C@H](C)[C@@H](O[C@@H]2O[C@H](C)C[C@H](N(C)C)[C@H]2O)[C@](C)(O)C[C@@H](C)[C@@H](N)[C@H](C)[C@@H](O)[C@@]1(O)CNCc1ccccc1", "note": "[Compound 14, (9R)-9-amino-21-benzylamino-9-deoxo-erythromycin A]", "values": [
      {"measurement": "MIC", "setting": "[1]", "result": 3.1, "unit": "µg/mL"},
      {"measurement": "MIC", "setting": "[2]", "result": 50, "unit": "µg/mL"},
      {"measurement": "MIC", "setting": "STAPHYLOCOCCUS AUREUS 45", "result": 6.2, "unit": "µg/mL"},
      {"measurement": "MIC", "setting": "[3]", "result": 50, "unit": "µg/mL"},
      {"measurement": "MIC", "setting": "[4]", "result": "> 100", "unit": "µg/mL"},
      {"measurement": "MIC", "setting": "ESCHERICHIA COLI H560", "result": 25, "unit": "µg/mL"},
      {"measurement": "MIC", "setting": "[5]", "result": "> 100", "unit": "µg/mL"},
      {"measurement": "MIC", "setting": "M[…] ATCC 4698", "result": 3.1, "unit": "µg/mL"},
      {"measurement": "MIC", "setting": "[6]", "result": 25, "unit": "µg/mL"},
      {"measurement": "MIC", "setting": "EN[…] ATCC 8043", "result": 3.1, "unit": "µg/mL"},
      {"measurement": "MIC", "setting": "M[…] ATCC 9341", "result": 0.78, "unit": "µg/mL"},
      {"measurement": "MIC", "setting": "ESCHERICHIA COLI JUHL", "result": 100, "unit": "µg/mL"},
      {"measurement": "MIC", "setting": "[7]", "result": "> 100", "unit": "µg/mL"},
      {"measurement": "MIC", "setting": "[8]", "result": "> 100", "unit": "µg/mL"},
      {"measurement": "MIC", "setting": "ESCHERICHIA COLI KNK 437", "result": 100, "unit": "µg/mL"},
      {"measurement": "MIC", "setting": "[9]", "result": 1.56, "unit": "µg/mL"},
      {"measurement": "MIC", "setting": "[10]", "result": "> 100", "unit": "µg/mL"},
      {"measurement": "MIC", "setting": "STR[…] EES61", "result": 0.2, "unit": "µg/mL"},
      {"measurement": "MIC", "setting": "STR[…] 508", "result": 0.39, "unit": "µg/mL"},
      {"measurement": "MIC", "setting": "[11]", "result": "> 100", "unit": "µg/mL"},
      {"measurement": "MIC", "setting": "[12]", "result": 6.2, "unit": "µg/mL"},
      {"measurement": "MIC", "setting": "ESCHERICHIA COLI DC-2", "result": 100, "unit": "µg/mL"},
      {"measurement": "MIC", "setting": "[13]", "result": 6.2, "unit": "µg/mL"},
      {"measurement": "MIC", "setting": "ESCHERICHIA COLI SS", "result": 0.78, "unit": "µg/mL"},
      {"measurement": "MIC", "setting": "[14]", "result": 3.1, "unit": "µg/mL"},
      {"measurement": "MIC", "setting": "[15]", "result": 0.2, "unit": "µg/mL"},
      {"measurement": "MIC", "setting": "PSEUDOMONAS CEPACIA 296I", "result": "> 100", "unit": "µg/mL"},
      {"measurement": "MIC", "setting": "[16]", "result": "> 100", "unit": "µg/mL"},
      {"measurement": "MIC", "setting": "[17]", "result": 3.1, "unit": "µg/mL"}
    ]}
  ]
}
